Assay: Stability of MRI-visibility of grafted substrates after incubation in PBS
Assay type: physicochemical
Conditions: grafted on substrates (PP meshes, thread-like shape); two months in PBS medium (pH=7.4) at 37° C.; FIG. 9C
Protocol: Bruker 7T BIOSPEC 70/20, “mini-imaging” configuration (gradient BGA12 675 mt/m, resonator “bird cage” 35 mm). After a set of marker gradient echo sequences, a spin3D echo sequence was acquired (FOV 3*3*1 cm matrix 128*128*48, TR=3000 ms, TE=8 ms (TEeff=16), RF=8, acquisition time of 0:51) with an inversion delay of 1300 ms.
MGE 3D sequences with TR/TE 110/3 ms and angles of 75, 30 and 15° were acquired.
Stability of MRI-visibility for PP modified meshes after 2 months in saline phosphate buffer (pH 7.4, 37° C.) is shown in FIG. 9C.

## 4-Azidoaniline Modified Gd-Diethylene Triamine Pentaacetic Acid (Gd-DTPA-biN3) Complex
  MRI image after incubation (stability of MRI-visibility): does not show any image degradation

— patent publication US11383008B2, “Surface-modified polymeric substrates grafted with a properties-imparting compound using clip chemistry” (Centre National de la Recherche Scientifique (CNRS), priority 2016, dated 2022)
